Source: PMC4229146, “An Odorant-Binding Protein Is Abundantly Expressed in the Nose and in the Seminal Fluid of the Rabbit” (PLoS ONE, 2014)
pKd: −log10 of the molar value.

Legend:
rabOBP3 [1] = target: T1, rabOBP3; experiment: competitive displacement of fluorescent probe 1-NPN; assay type: binding, Oryctolagus cuniculus
T1 construct: native mature protein (161 amino acids) purified from rabbit seminal fluid, delipidated with dichloromethane

rabOBP3 [2] = target: T1, rabOBP3; experiment: fluorescent probe titration (direct fluorescence binding); design: species or system Oryctolagus cuniculus

Row | pKd (rabOBP3 [1]) | Structure (SMILES) | pKd (rabOBP3 [2])
1 | 5.11 | CCCCCC/C=C/C=O [2-nonenal] | –
2 | – | c1ccc(Nc2cccc3ccccc23)cc1 [N-phenyl-1-naphthylamine] | 5.42
3 | 4.95 | CC(C)=CCC/C(C)=C/CO [geraniol] | –

Row | Structure (SMILES) | pKd (rabOBP3 [1]) | pKd (rabOBP3 [2])
4 | O=c1c(O)c(-c2ccc(O)c(O)c2)oc2cc(O)cc(O)c12 [quercetin] | 5.66 | –
